Patent US20260076974A1, “COMPOSITIONS FOR PREVENTING AND TREATING INFECTION COMPRISING AN ARTIFICIAL SWEETENER” (Brunel University London, priority 2022, published 2026)
Read-outs that look alike come from different tables or passages of the source.

How the values were obtained:
P. aeruginosa PA14 [1] = assay: Growth inhibition assay in nutrient medium (OD600); assay type: cell-based, Pseudomonas aeruginosa
P. aeruginosa = assay: Antibiotic susceptibility in the presence of sub-minimum inhibitory concentration of ace-K; assay type: cell-based, Pseudomonas aeruginosa; conditions: grown in the presence of ace-K for 19 hours
A. baumannii AB5075 [2] = assay: Growth inhibition assay in LB medium (OD600); assay type: cell-based, Acinetobacter baumannii
A. baumannii = assay: Crystal violet biofilm formation assay / minimum biofilm inhibition concentration; assay type: cell-based, Acinetobacter baumannii
Description: (§1) Biofilm formation is linked to 80% of hospital-associated infections and is a major factor in the routine failure of antibiotic therapy.
(§2) All samples were exposed to the artificial sweeteners in LB medium for 19 hours before crystal violet biofilm assay was performed. […] The data present the mean of three biological replicates±SD. *p≤0.05, *p≤0.001 versus the bacterial growth in control samples.
(§3) All samples were exposed to artificial sweeteners for 19 hours before crystal violet biofilm assay was performed.

[3] = test system: A. baumannii gene expression
Description: Cells were spun down and washed in RNAlater to preserve mRNA. RNA was isolated using a Qiagen RNAeasy Kit with column DNAase digestion. RNA integrity was determined using a Bioanalyzer. Samples were further processed for RNA sequencing on an Illumina MiSeq with 12 million reads per sample. Quality control and adapter trimming was performed with bcl2fastq.

E. coli [4] = test system: E. coli
Description: (§4) N=3 biological triplicate, each with technical triplicates).

E. coli [5] = test system: E. coli; remark: listed apart in the source
A. baumannii AB5075 [6] = assay: Carbapenem E strip on agar with sweetener
Description: The data presented is a representative image of three biological replicates±SD.

P. aeruginosa PA14 [7] = assay: Crystal violet biofilm formation assay / minimum biofilm inhibition concentration; assay type: cell-based, Pseudomonas aeruginosa; conditions: 3% (w/v) sucralose, […] (w/v) ace-K, LB medium, 19 hours
Description: as §1, §2, §3

A. baumannii AB5075 [8] = test system: A. baumannii AB5075; parameters: species or system Acinetobacter baumannii
Description: In this model, porcine skin was either burnt or lacerated and the wound infected with A. baumannii AB5075 and left for 3.5 hours to allow a biofilm to form. The dressing was applied for 1 hour and viable cells were collected after treatment. […] Samples were tested in biological triplicate with technical quadruplets.
(8% (w/w)), potassium tetraborate (3% (w/w)), and PVA (3% ((w/w)) were added into a beaker and mixed with deionized water. The mixture was placed in a water bath and heated at 80° C. for three hours with watch glass while being swirled with a stirring rod every 1 hour. Once hydrogels had been obtained, they were placed in a petri dish with custom-made moulds.

[9] = […] sweetener, 19 hours, 37° C.
[10] = […] sweetener, 19 hours, LB medium

Description for Klebsiella pneumoniae: as §4

## OC[C@@H](O)[C@@H](O)[C@H](O)[C@@H](O)CO [sorbitol]
P. aeruginosa PA14 [1]; [9]
  bacterial growth in the presence of sweetener: inhibit the growth

## gentamicin
P. aeruginosa
  susceptibility to antibiotic in the presence of ace-K: increased susceptibility

## O=S(=O)([O-])NC1CCCCC1.[Na+] [cyclamate, sodium cyclamate]
P. aeruginosa PA14 [1]
  bacterial growth in the presence of sweetener: inhibit the growth
  concentration showing significant / effective growth inhibition: ≥ 2%
A. baumannii AB5075 [2]
  bacterial growth in the presence of sweetener: inhibit the growth
  concentration showing significant / effective growth inhibition: ≥ 2%
A. baumannii
  concentration with significant impact on / inhibition of biofilm formation: ≥ 4%
[3]
  number of genes significantly differentially expressed: 288 genes
E. coli [4]
  concentration showing significant / effective growth inhibition: ≥ 0.1%
Klebsiella pneumoniae
  concentration showing significant / effective growth inhibition: ≥ 2%
K. pneumonia
  concentration inhibiting biofilm formation: ≥ 3%
E. coli [5]
  concentration inhibiting biofilm formation: ≥ 3%

## C[C@@H](O)[C@H]1C(=O)N2C(C(=O)O)=C(S[C@@H]3CN[C@H](CNS(N)(=O)=O)C3)[C@H](C)[C@H]12 [doripenem]
A. baumannii AB5075 [6]; Control
  point to which growth was inhibited on the strip: 18.67 ± 4.61 mg/L
A. baumannii AB5075 [6]; SAC 1%
  point to which growth was inhibited on the strip: 13.33 ± 2.31 ns mg/L
A. baumannii AB5075 [6]; SAC […]
  point to which growth was inhibited on the strip: 0.46 ± 0.07 mg/L

## OCC1O[C@@H](O[C@@H]([C@H](O)[C@@H](O)CO)[C@H](O)CO)C(O)C(O)[C@H]1O (stereo partly drawn) [lactitol monohydrate, Lactitol]
A. baumannii AB5075 [2]; [10]
  bacterial growth in the presence of sweetener: inhibit the growth

## OC[C@@H](O)[C@@H](O[C@H]1O[C@H](CO)[C@@H](O)[C@H](O)[C@H]1O)[C@H](O)[C@@H](O)CO [maltitol, Maltitol]
P. aeruginosa PA14 [1]; [9]
  bacterial growth in the presence of sweetener: inhibit the growth
A. baumannii AB5075 [2]; [10]
  bacterial growth in the presence of sweetener: inhibit the growth

## OC[C@@H](O)[C@H](O)[C@@H](O)CO [xylitol, Xylitol]
P. aeruginosa PA14 [1]; [9]
  bacterial growth in the presence of sweetener: inhibit the growth
A. baumannii AB5075 [2]; [10]
  bacterial growth in the presence of sweetener: inhibit the growth

## OC[C@@H](O)[C@@H](O)CO [erythritol, Erythritol]
A. baumannii AB5075 [2]; [10]
  bacterial growth in the presence of sweetener: inhibit the growth

## C[C@@H](O)[C@H]1C(=O)N2C(C(=O)O)=C(SCCN=CN)C[C@H]12 [imipenem]
A. baumannii AB5075 [6]; Control
  point to which growth was inhibited on the strip: 21.33 ± 4.61 mg/L
A. baumannii AB5075 [6]; SAC 1%
  point to which growth was inhibited on the strip: 18.67 ± 4.61 ns mg/L
A. baumannii AB5075 [6]; SAC […]
  point to which growth was inhibited on the strip: 1 ± 0.43 mg/L

## OC[C@H]1O[C@H](O[C@]2(CCl)O[C@H](CCl)[C@@H](O)[C@@H]2O)[C@H](O)[C@@H](O)[C@H]1Cl [sucralose, Sucralose]
P. aeruginosa PA14 [1]; [9]
  bacterial growth in the presence of sweetener: inhibit the growth
A. baumannii AB5075 [2]; [10]
  bacterial growth in the presence of sweetener: inhibit the growth
P. aeruginosa PA14 [7]
  biofilm formation: significantly inhibit biofilm formation
A. baumannii; 3% (w/v) sucralose, […] (w/v) ace-K, LB medium, 19 hours
  biofilm formation: significantly inhibit biofilm formation

## OC[C@@H](O)[C@@H](O)[C@H](O)[C@H](O)CO [mannitol, Mannitol]
A. baumannii AB5075 [2]; [10]
  bacterial growth in the presence of sweetener: inhibit the growth

## C[C@@H](O)[C@H]1C(=O)N2C(C(=O)O)=C(S[C@@H]3CN[C@H](C(=O)N(C)C)C3)[C@H](C)[C@H]12 [meropenem]
A. baumannii AB5075 [6]; Control
  point to which growth was inhibited on the strip: ≥32 mg/L
A. baumannii AB5075 [6]; SAC 1%
  point to which growth was inhibited on the strip: 29.33 ± 4.61 ns mg/L
A. baumannii AB5075 [6]; SAC […]
  point to which growth was inhibited on the strip: 0.54 ± 0.19 mg/L

## piperacillin/tazobactam
P. aeruginosa
  susceptibility to antibiotic in the presence of ace-K: increased susceptibility

## polymyxin B [reference compound]
A. baumannii AB5075 [8]
  log reduction in viable cells: 3.13 log
A. baumannii AB5075 [8]; burn wound biofilms, gauze loaded with 1.5 mL of 0.59 mg/mL polymyxin B singularly
  log reduction in viable cells: 2.11 log
P. aeruginosa
  susceptibility to antibiotic in the presence of ace-K: increased susceptibility
